*1 amine or outer side, *2 acyl side, *3 side chain or, on linkers, in order; H or OH if unused. Where a SMILES comes first, the peptide text is derived from it. The star is where a group is joined. AMC = Cc1cc(=O)oc2cc(N*)ccc12; Suc = O=C(CCC(=O)[*:2])[*:1]; MeOSuc = COC(=O)CCC(=O)*
Assays:
[1] = tested on: human chymotrypsin (Chtr); test: Km of chymotrypsin for its fluorogenic substrate (used for ka correction, eq 2); format: biochemical; conditions: substrate Suc-AAPF-AMC, kinetics in 50 mM Tris pH 7.5, 150 mM NaCl, 0.05% Triton X-100, 0.01% BSA, 25° C.
Source text: (§1) hK2 and hK3 (PSA) were purified from human semen as previously described (Frenette G, Gervais Y, Tremblay R R, Dube J Y. 1998 “Contamination of purified prostate-specific antigen preparations by kallikrein hK2” J Urol 159, 1375-8), anti-hK2 and anti-PSA monoclonal antibodies were a gift from Professor R R Tremblay, Laval University, Canada. Human chymotrypsin (Chtr), urokinase plasminogen activator (uPA), human kallikrein hK1, human plasma kallikrein (PK), human neutrophil elastase (HNE) and commercial ACT (human plasma α1-antichymotrypsin) were purchased from Calbiochem. […]
(§2) The association rate constants for interactions of hK2, chymotrypsin, PK and HNE with different rACTs were determined under pseudo-first order conditions using the progress curve method (Morrison J F, Walsh C T. 1988 “The behavior and significance of slow-binding enzyme inhibitors” Adv. Enzymol. Relat. Areas Mol. Biol 61, 201-301). […] Each reaction was made in reaction buffer (50 mM Tris pH 7.5, 150 mM NaCl, 0.05% Triton X-100, 0.01% BSA) at 25° C. for 45 min and the rate of product formation was measured using a FLx800 fluorescence 96-well microplate reader (Biotek, USA). […]
(§3) For each inhibitor, a kobs was calculated, for four different concentrations of inhibitors, by non linear regression of the data using equation 1. […]

[2] = molecular target: T1, human neutrophil elastase (HNE) (Homo sapiens, UniProt P08246); test: Km of HNE for its fluorogenic substrate (used for ka correction, eq 2); format: biochemical; conditions: substrate MeOSuc-AAPV-AMC, kinetics in 50 mM Tris pH 7.5, 150 mM NaCl, 0.05% Triton X-100, 0.01% BSA, 25° C.
T1 construct: substrate MeOSuc-AAPV-AMC
T1 sequence (P08246 30-267): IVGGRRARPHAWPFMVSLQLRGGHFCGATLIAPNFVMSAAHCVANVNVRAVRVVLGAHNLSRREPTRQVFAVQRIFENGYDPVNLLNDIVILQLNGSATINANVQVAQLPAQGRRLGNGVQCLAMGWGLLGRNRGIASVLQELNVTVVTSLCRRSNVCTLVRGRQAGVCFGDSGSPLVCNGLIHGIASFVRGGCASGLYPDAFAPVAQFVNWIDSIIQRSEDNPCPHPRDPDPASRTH
Source text: as §1, §2, §3

Km [1] [µM] | Km [2] [µM] | SMILES
145 | – | Cc1cc(=O)oc2cc(NC(=O)[C@H](Cc3ccccc3)NC(=O)[C@@H]3CCCN3C(=O)[C@H](C)NC(=O)[C@H](C)NC(=O)CCC(=O)O)ccc12 [Suc-AAPF-AMC, Suc-Ala-Ala-Pro-Phe-AMC] (Suc-AAPF-{AMC})
– | 130 | COC(=O)CCC(=O)N[C@@H](C)C(=O)N[C@@H](C)C(=O)N1CCC[C@H]1C(=O)N[C@H](C(=O)Nc1ccc2c(C)cc(=O)oc2c1)C(C)C [MeOSuc-AAPV-AMC, MeOSuc-Ala-Ala-Pro-Val-AMC] (MeOSuc-AAPV-{AMC})

From patent publication US8975370B2, “Inhibitor proteins of a protease and use thereof” (Universite de Lausanne, priority 2003, dated 2015)
